In patent US10624917B2, “Compositions and methods useful for treating or preventing liver diseases or disorders, and promoting weight loss” (YALE UNIVERSITY, priority 2014, dated 2020):

Tests used:
[1] = test system: HRE promoter luciferase construct in THP-1 cells; assay: HRE-promoter luciferase reporter assay in THP-1 cells; type: cell-based, human; settings: LPS/PMA primed 16 hours, treatment over 8 hours
From the text: FIGS. 4A-4H illustrate the finding that adenosine mediates increase in pro-IL-1β via a HIF-1α-dependent pathway. FIG. 4A: Consensus NFκB and HRE binding sites in the IL-1β promoter. FIG. 4B: LPS primed PECs obtained from A2AR-cKO and controls were stimulated with or without NECA or CGS21680. FIG. 4C: LPS primed PECs obtained from HIF-1α-cKO and controls were stimulated with or without NECA at time points as indicated. Cells were harvested and RNA isolated after each treatment and gene expression of Il1b and Hif1α quantified by real-time PCR. FIG. 4D: THP-1 cells were transfected with HRE-promoter luciferase construct and β-galactosidase plasmid in the presence or absence of CREB dominant negative plasmid (CREBΔ), and then primed with LPS/PMA followed by NECA. […] Luciferase activities were measured and normalized to β-galactosidase activity and normalized with controls. […] Luciferase activities were measured and normalized to Rluc activity and the normalized value with controls as indicated. […] IL-1β was measured in cell supernatant by ELISA. Data are expressed as the mean±SD from three independent experiments. […] HIF-1α, pro-caspase-1, Caspase-1 and pro-IL-1β was measured in cell supernatant by western blot Immunoblots shown are representative results from at least three independent experiments. […]

[2] = test system: wild type C57BL/6 mice treated with LPS; assay: LPS/D-galactosamine liver injury with adenosine agonist; type: in vivo, mouse
Description: FIGS. 14A-14F illustrate increase in serum ALT and changes in liver gene expression in mice treated with LPS in the presence or absence of adenosine agonist. Wild type C57BL/6 mice were injected intraperitoneally with LPS (1 μg/mouse). 16 hours later mice received NECA (2.5 mg kg^−1 body weight) and D-galactosamine (500 mg kg^−1) by IP for 2 hours following liver tissue and serum collection. Serum ALT was determined (FIG. 14A), and the gene expression of Il1β (FIG. 14B), Il6 (FIG. 14C), Hif1α (FIG. 14D), Nlrp3 (FIG. 14E), and tnfα (FIG. 14F) was quantified by real-time PCR using each specific gene primer set as listed. Data are expressed as the mean±SD from 6 mice in each treatment group. *p<0.05 determined by Student's t-test.
The results recited herein show a requirement for adenosine signaling via the A2A receptor for maximal production of IL-1β by macrophages in vitro. With tissue inflammation and injury extracellular adenosine levels are known to increase by a variety of means from the basal levels below 1 μM to levels up to […]. It was tested whether A2A receptor driven inflammasome activity was relevant in vivo; two models of liver injury was used: one acute LPS driven model where liver injury was assessed in 6 hours after LPS, and a second model of sterile injury by a toxic metabolic insult to the liver by thioacetamide (TAA) in which injury was examined at days 1, 2 and 7. A2AR-cKO mice that specifically delete Adora2a gene in macrophages were used. Liver immune populations were intact in these mice (FIG. 13). […] To test the effect of increasing adenosine signaling in vivo, wild-type mice were treated with LPS in the presence or absence of the adenosine agonist NECA.

For `CCNC(=O)[C@H]1O[C@@H](n2cnc3c(N)ncnc32)[C@H](O)[C@@H]1O` [NECA, 5′-(N-ethylcarboxamido) adenosine], the “HRE reporter luciferase activity” value [1] was “resulted in HRE reporter luciferase activity”, the “serum ALT” value [2] was “significant elevation” and the “whole liver transcript of Hif1a” value [2] was “significant elevation”. For the same compound, the “whole liver transcript of Il1b” value [2] was “significant elevation”, the “whole liver transcript of Il6” value [2] was “significant elevation” and the “whole liver transcript of Nlrp3” value [2] was “significant elevation”. The “whole liver transcript of tnfa” value [2] was “reduction”.
